Target: T1, Cytosol Progesterone Receptor of the Estrogen-primed Immature Rabbit Uterus (Oryctolagus cuniculus, UniProt P06186)
T1 construct: cytosol progesterone receptor of the estrogen-primed immature rabbit uterus; tissue Dutchland Laboratories, Inc., Denver, Pa (animals); host or cells: uterus cytosol of estradiol-treated immature female New Zealand White rabbits
T1 sequence (P06186 1-930): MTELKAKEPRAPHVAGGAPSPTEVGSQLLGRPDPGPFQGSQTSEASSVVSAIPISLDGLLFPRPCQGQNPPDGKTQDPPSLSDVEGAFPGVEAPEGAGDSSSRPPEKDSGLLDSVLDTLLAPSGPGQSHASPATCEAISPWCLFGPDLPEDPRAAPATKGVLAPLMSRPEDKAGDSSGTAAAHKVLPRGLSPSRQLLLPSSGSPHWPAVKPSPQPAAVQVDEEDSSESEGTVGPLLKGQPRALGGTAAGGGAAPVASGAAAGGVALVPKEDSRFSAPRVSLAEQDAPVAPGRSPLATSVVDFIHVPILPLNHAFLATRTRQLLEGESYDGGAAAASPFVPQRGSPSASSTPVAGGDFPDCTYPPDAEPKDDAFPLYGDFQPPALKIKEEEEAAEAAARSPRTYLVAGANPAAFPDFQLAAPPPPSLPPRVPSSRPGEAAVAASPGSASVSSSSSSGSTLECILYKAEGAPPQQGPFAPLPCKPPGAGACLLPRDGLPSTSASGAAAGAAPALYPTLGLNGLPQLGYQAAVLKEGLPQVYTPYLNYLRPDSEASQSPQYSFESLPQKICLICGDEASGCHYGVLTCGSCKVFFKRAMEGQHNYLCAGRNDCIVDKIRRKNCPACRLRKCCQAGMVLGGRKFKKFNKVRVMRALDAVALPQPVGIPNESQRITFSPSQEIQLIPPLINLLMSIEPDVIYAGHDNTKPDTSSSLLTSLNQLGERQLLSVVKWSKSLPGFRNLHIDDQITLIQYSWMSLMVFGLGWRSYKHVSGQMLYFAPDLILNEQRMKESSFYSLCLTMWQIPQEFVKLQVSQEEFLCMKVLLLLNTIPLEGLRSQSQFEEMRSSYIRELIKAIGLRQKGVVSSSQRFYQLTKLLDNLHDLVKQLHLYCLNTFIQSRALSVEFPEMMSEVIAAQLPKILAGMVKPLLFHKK
Test: Relative binding affinity for progesterone receptor (competition with 3H-progesterone)
Parameters: species or system rabbit (New Zealand White)

C#C[C@]1(C(C)=O)CC[C@H]2[C@@H]3CCC4=CC(=O)CC[C@]4(C)[C@H]3CC[C@@]21C [17α-Ethynylprogesterone, 17α-ethynylprogesterone]
RBA, mean of assays (X±S.D.) (16 to 18 hour incubation at 0° C., spurious value 11 excluded): 189±55 | RBA (Assay 1, 16-18 hour incubation, progesterone = 100, 5α-dihydro-17α-ethynyl: lot 1): 156% | RBA (Assay 2, 16-18 hour incubation, progesterone = 100, 5α-dihydro-17α-ethynyl: lot 1): 267% | RBA (Assay 3, 16-18 hour incubation, progesterone = 100, 5α-dihydro-17α-ethynyl: lot 1): 144% | RBA (two-hour incubation at 0° C.): 352

— patent publication US4512986A, “Progrestationally active steroids” (priority 1983, dated 1985)
